This test addresses T1, aromatase (Homo sapiens, UniProt P11511).
T1 construct: The supernatant was then subjected to an ultracentrifugation stage (90 minutes, 105,000 g) to obtain the microsomal regulus; from tissue; host or cells: human placenta, microsomal fraction
T1 sequence (P11511 1-503): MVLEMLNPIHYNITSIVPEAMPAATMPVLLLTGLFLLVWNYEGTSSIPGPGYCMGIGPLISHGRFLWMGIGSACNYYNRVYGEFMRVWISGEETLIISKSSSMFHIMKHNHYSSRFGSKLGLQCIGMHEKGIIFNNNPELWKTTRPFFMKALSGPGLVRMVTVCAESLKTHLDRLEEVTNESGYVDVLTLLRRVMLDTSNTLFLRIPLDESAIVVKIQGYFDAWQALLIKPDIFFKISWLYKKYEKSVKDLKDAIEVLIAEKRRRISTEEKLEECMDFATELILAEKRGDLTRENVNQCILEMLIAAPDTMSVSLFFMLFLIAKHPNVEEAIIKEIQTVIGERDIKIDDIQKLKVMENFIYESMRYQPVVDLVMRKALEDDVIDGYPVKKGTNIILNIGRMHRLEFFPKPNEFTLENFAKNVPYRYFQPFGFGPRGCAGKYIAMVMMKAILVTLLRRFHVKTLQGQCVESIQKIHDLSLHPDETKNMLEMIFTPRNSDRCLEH
As to the kind of experiment: Inhibition of aromatase in human placental microsomes (tritiated water release from 1β-2β-3H-Androstenedione). In kind it is biochemical. Particulars: 25 micrograms of proteins per test, substrate Androstenedione 500 nM, NADPH, 37° C., 10 minutes, read-out: IC50 (concentration of inhibitor necessary to decrease by 50% the enzymatic activity). As for the experimental part:
Inhibition dependent on the concentration (measurement of IC50 =concentration of inhibitor necessary to reduce the enzymatic activity by 50%). Human placentas were used which were washed one hour at most after birth, perfused with physiological serum (5 liters) via the umbilical vein and then deep-frozen at -40° C.
(1) Obtaining the placental microsomes
The placentas were thawed at 4° C. and then homogenized (1:3) in a phosphate buffer 10 mM, pH=7.0; containing 100 millimoles of potassium chloride (KCl), 10 millimoles of dithiothreitol (DTT), 10 millimoles of ethylenediaminetetraacetic acid (EDTA), 40 millimoles of nicotinamide and 250 millimoles of sucrose. […]
The supernatant was then subjected to an ultracentrifugation stage (90 minutes, 105,000 g) to obtain the microsomal regulus. […] The protein concentration of the microsomal suspension was determined by the BRADFORD method BRADFORD M., Anal. Biochem., Vol. 72, (1976), p. […]
After centrifugation, 100 microliters of supernatant were taken from each tube and counted in the presence of a scintillating liquid. […] The inhibition obtained for each concentration of each inhibitor product of the invention was calculated as a percentage of the controls (arbitrary 100% , obtained in absence of any inhibitor). […]

With `CSCC[C@]12CCC(=O)C=C1[C@H](O)C[C@H]1[C@@H]3CCC(=O)[C@@]3(C)C[C@H]3O[C@]312` [Example 2, 9α, 11α-epoxy-10β-[2-methylthio-ethyl]-Δ^4-estrene-6β-ol-3,17-dione], the IC50 worked out at 180 nM.

The values above are taken from US5202314A, “10-thioethyl-steroids” (Roussel Uclaf, priority 1991, dated 1993).
